Data taken from patent US20250241905A1, “3-BETA-HSD1 INHIBITORS AND COMPOSITIONS AND USES THEREOF” (The Cleveland Clinic Foundation, priority 2022, published 2025).
Read-outs that look alike come from different tables or passages of the source.

Key:
human 3β-HSD1 = test: 3β-HSD1 inhibition, colorimetric NADH detection assay; assay type: biochemical; settings: purified recombinant human 3β-HSD1, 50 μM DHEA, 2 mM NAD+, 1 hour, room temperature, duplicate 10-point CRC; read-out: IC50 (nM), in vitro NADH inhibition
Text: Enzymatic turnover was quantified through NADH generation by purified, recombinant human 3β-HSD1 (expressed in Sf9 insect cells) in the presence of steroidal substrate trans-Dehydroandrosterone (DHEA) that was placed slightly above the experimentally determined Km and saturating amounts of co-factor Nicotinamide adenine dinucleotide (NAD^+). The sequence of recombinant human 3β-HSD1 used is […] […] […] […] […] […] […] (SEQ ID NO: 3). DHEA and NAD+ were enzymatically converted to androstenedione and NADH, respectively. Final NADH concentrations were spectroscopically quantified using a commercially available Amplite™ Colorimetric NADH Assay Kit which utilizes an NADH probe with an absorbance wavelength of 460 nm. Enzymatic assays with a final volume of 25 μL were ran in a 384-well, Greiner Bio-One UV-STAR® assay plate in 50 mM TRIS pH 8.0 assay buffer. […] Compound stocks at 10 mM in DMSO were serial diluted 5-fold in DMSO to generate an ECHO® compatible source plate. 125 nL of DMSO, Trilostane, or serial diluted compounds were then acoustically transferred into an empty UV-STAR® assay plate to give a final assay concentration of 0.5% v/v DMSO. The stamp volume and dilution scheme can be adjusted to accommodate compound potency. The assay can tolerate up to a 5% v/v DMSO final assay concentration. 15 μL of 1 μg purified 3β-HSD1 and 50 μM DHEA (final assay volume concentration) was dispensed per well into the stamped plate, centrifuged for 1 minute at 1000 RPM, covered, and allowed to incubate for 15 minutes at room temp. Enzymatic reactions were initiated upon the addition of 10 μL of NAD^+ diluted in assay buffer to give a final assay volume concentration of 2 mM. The assay plate was centrifuged for 1 minute at 1000 RPM, covered, and incubated at room temperature for 1 hour. 25 μL Amplite™ Colorimetric NADH Assay Kit detection solution (prepared as recommended) was added to all reaction wells, the plate centrifuged for 1 minute at 1000 RPM, covered, and incubated for 15 minutes. Final absorbance values (λ=460 nm) are spectroscopically determined on BioTek® Cytation5 or Synergy4 plate readers. […] From the background subtracted values, the non-inhibited enzyme signal (DMSO treated) was averaged from 32 control reactions. The percent inhibition value was calculated by: % inhibition=(1−((background subtracted inhibited reaction)/(background subtracted non-inhibited average)))*100. The resulting percent inhibition was then plotted in duplicate against corresponding concentration values. The resulting CRCs were fit with a four parameter, variable slope log (inhibitor) vs response equation where Y=bottomvalue+ (topvalue−bottomvalue)/(1+10^((log IC50−X)*Hillslope)) to determine the IC50 values for tested compounds.

[1] = system: C4-2 prostate cancer cells; test: Cellular viability of C4-2 cells (CellTiter-Glo); assay type: cell-based, human; settings: 6 days, 1% FBS + DHEA, read-out: GI50 (μM), growth inhibition
Description: C4-2 cells were routinely maintained in RPMI+2 mM L-Glutamine+1× Anti-Anti+10% FBS. C4-2 cells were harvested by trypsinization for 90 seconds in 0.25% Trypsin-EDTA, counted with a Vi-Cell Blu cell counter (Beckman Coulter), and diluted into Complete Viability Media (RPMI+2 mM L-Glutamine+1× Anti-Anti+1% FBS+[…]) at a density of 10,000 cells/mL. 12-point, two-fold dilution series of test compounds (starting at 10 mM) were prepared in 100% DMSO, and then 450 nL of the dilution series were stamped in triplicate into 384-well, white, opaque bottom, TC-treated CulturPlate™ (Perkin Elmer 6007680) using acoustic dispensing (Labcyte Echo 550). 50 μL/well of the diluted C4-2 cells (500 cells/well) were added directly to the plates containing dispensed compounds, yielding a final [DMSO] of 0.9% and a final top [compound] of 90 μM. The plates were centrifuged for 1 min at 500×g and then incubated for 6 days at 37° C., 5% CO2. Cell density at the end of the assay was measured using 35 μL/well CellTiter-Glo® (Promega) per the manufacturer's recommendations, and total luminescence was measured on a Cytation 5 plate reader. Raw luminescence values were normalized from 0 (empty Viability Media+0.9% DMSO, no cells) to 100 (Cells+0.9% DMSO, maximum proliferation), triplicate values were averaged, and dose-response curves were fit and G150 values extracted using variable slope nonlinear regression in GraphPad Prism.

[2] = system: Androstenedione synthesis in C4-2 prostate cancer cells; test: Cell line steroid metabolism: androstenedione synthesis inhibition (HPLC, [3H]-labeled androgens); assay type: cell-based; settings: Homo sapiens, serum-free RPMI-1640, [3H]-labeled androgens 25 nM
Description: Cells were seeded and incubated in 12-well plates with 0.15 million cells/well in RPMI-1640 medium with 10% FBS for ˜24 h at 37° C. Culture medium was then replaced with serum-free RPMI-1640 and a mixture of radioactive ([3H]-labeled) and non-radioactive androgens (final concentration, 25 nM; ˜600,000 cpm/well; PerkinElmer, Waltham, MA) plus inhibitor compounds at specified concentrations was added. […]
High-performance liquid chromatography (HPLC) analysis was performed on a Waters 1525 HPLC system (Waters Corp., Milford, MA). Dried samples were reconstituted in 50% methanol and injected into the HPLC. Steroids were separated on a Luna 150×4.6 mm, 3.0 μm particle size C18 reverse-phase column (Phenomenex, Torrance, CA) with a methanol/water gradient at 50° C. Column effluent was mixed with Liquiscint scintillation cocktail (National Diagnostics, Atlanta, GA) and analyzed using a β-RAM model 4 in-line radioactivity detector (LabLogic, Brandon, FL).

C4-2 flank tumor = test: CRPC C4-2 flank tumor model in mice; assay type: in vivo; settings: orchiectomized NSG male mice with DHEA pellets, 100 mg/kg in water with 20% Captisol, oral gavage twice daily
Description: The mouse study was performed under a protocol approved by the Institutional Animal Care and Use Committee of the Cleveland Clinic Lerner Research Institute. All NOD scid gamma (NSG) male mice (6 to 8 weeks old) were purchased from the Jackson Laboratory. 10^7 C4-2 cells were injected subcutaneously into mice with matrigel (total injection volume 100 μL). Once tumors reached 100 mm^3 (length×width×height×0.52), mice were surgically orchiectomized and implanted with 5 mg 90-day sustained-release DHEA pellets (Innovative Research of America) to mimic human adrenal DHEA production in patients with CRPC, then the mice were arbitrarily (but not strictly randomized) assigned to vehicle (n=6), Compound 1 (n=6), or Compound 5 (n=6). The mice were given vehicle, Compound 1 (100 mg/kg in water with 20% Captisol), or Compound 5 (100 mg/kg in water with 20% Captisol) by oral gavage twice daily.

Chain of human 3β-HSD1 (P14060 2-373 limits assumed): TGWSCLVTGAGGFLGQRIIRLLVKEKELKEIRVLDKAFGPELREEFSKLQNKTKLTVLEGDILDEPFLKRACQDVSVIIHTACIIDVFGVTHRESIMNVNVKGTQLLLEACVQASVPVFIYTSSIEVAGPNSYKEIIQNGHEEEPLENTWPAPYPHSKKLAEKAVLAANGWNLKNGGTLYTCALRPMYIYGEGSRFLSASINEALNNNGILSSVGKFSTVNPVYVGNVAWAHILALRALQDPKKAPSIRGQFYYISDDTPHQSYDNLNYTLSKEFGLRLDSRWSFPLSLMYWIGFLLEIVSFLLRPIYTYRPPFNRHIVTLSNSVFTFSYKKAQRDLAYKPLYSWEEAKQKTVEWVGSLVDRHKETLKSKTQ

SMILES	IC50 (human 3β-HSD1)	GI50 ([1]; Homo sapiens, 144 h)	IC50 [2]	further results
CC1(C)CCc2nc(-c3cc(F)c(O)c(F)c3)ccc2C1(O)C1CC1 (stereo not drawn) [Compound 20]	331 nM	30 µM	–	–
C[C@]12CCC(=O)C=C1CC[C@@H]1[C@@H]2CC[C@]2(C)C(c3cccnc3)=CC[C@@H]12 [D4-Abiraterone, reference compound]	–	–	–	GI50 [1]: 2.4 ± 0.4 µM
O=C1CCCc2nc(-c3ccc(O)c(F)c3)ccc21 [Compound 2, 2-(3-fluoro-4-hydroxyphenyl)-7,8-dihydroquinolin-5(6H)-one]	45 nM	59 µM	14 nM	–
O=C1c2ccc(-c3cc(F)c(O)c(F)c3)nc2CCC1(F)F [Compound 41]	79 nM	–	68 nM	–
CC1(C)CCc2nc(-c3cc(F)c(O)c(F)c3)ccc2C1O (stereo not drawn) [Compound 12]	2560 nM	61 µM	–	–
O=C1c2ccc(-c3cc(F)c(O)c(F)c3)nc2CCC1Cc1ccccc1 (stereo not drawn) [Compound 9, 6-benzyl-2-(3,5-difluoro-4-hydroxyphenyl)-7,8-dihydroquinolin-5(6H)-one]	37 nM	6 µM	10 nM	–
CC1(C)CCc2nc(-c3cc(F)c(O)cc3F)ccc2C1=O [Compound 25]	84 nM	–	1 nM	–
CC1(C)CCc2nc(-c3cc(F)c(O)c(F)c3)ccc2C1=O [Compound 5, 2-(3,5-difluoro-4-hydroxyphenyl)-6,6-dimethyl-7,8-dihydroquinolin-5(6H)-one]	71 nM	26 µM	1.4 nM	tumor volume compared to vehicle control (C4-2 flank tumor): reduction in tumor volume
CC[C@@]1(C)CCc2nc(-c3cc(F)c(O)c(F)c3)ccc2C1=O [Compound 55]	89 nM	–	0.7 nM	–
CCC1CCc2nc(-c3cc(F)c(O)c(F)c3)ccc2C1=O (stereo not drawn) [Compound 8, 2-(3,5-difluoro-4-hydroxyphenyl)-6-ethyl-7,8-dihydroquinolin-5(6H)-one]	105 nM	16 µM	–	–
O=C1c2ccc(-c3cc(F)c(O)c(F)c3)nc2CCC12CC2 [Compound 11]	68 nM	10 µM	4.8 nM	–
O=C1c2ccc(-c3cc(F)c(O)c(F)c3)nc2CCC1c1ccccc1 (stereo not drawn) [Compound 10, 2-(3,5-difluoro-4-hydroxyphenyl)-6-phenyl-7,8-dihydroquinolin-5(6H)-one]	79 nM	10 µM	–	–
O=C1CCNc2nc(-c3cc(F)c(O)c(F)c3)ccc21 [Compound 26]	218 nM	–	–	–
O=C1c2ccc(-c3cc(F)c(O)c(F)c3)nc2CCC12COCOC2 [Compound 62]	541 nM	–	–	–
CC1(C)CCc2nc(-c3cc(F)c(O)c(F)c3)ccc2C1(C)O (stereo not drawn) [Compound 16]	376 nM	20 µM	–	–
COC1(c2cccnc2)CCCc2nc(-c3cc(F)c(O)c(F)c3)ccc21 (stereo not drawn) [Compound 91]	25 nM	–	–	–

SMILES	IC50 (human 3β-HSD1)	GI50 ([1]; Homo sapiens, 144 h)	IC50 [2]	further results
O=C1CCCc2nc(-c3cc(F)c(O)cc3F)ccc21 [Compound 24]	83 nM	–	–	–
Oc1c(F)cc(-c2ccc3c(n2)CCCC3OCC2COC2)cc1F (stereo not drawn) [Compound 74]	441 nM	–	–	–
CN1CC(C)(C)C(=O)c2ccc(-c3cc(F)c(O)c(F)c3)nc21 [Compound 68]	308 nM	–	–	–
O=C1CCCc2nc(-c3cc(F)c(O)c(F)c3)ccc21 [Compound 1, 2-(3,5-difluoro-4-hydroxyphenyl)-7,8-dihydroquinolin-5(6H)-one]	62 nM	53 µM	83 nM	tumor volume compared to vehicle control (C4-2 flank tumor): reduction in tumor volume
O=C1CCCc2nc(-c3cc(F)c(O)c(F)c3)cnc21 [Compound 70]	7640 nM	–	–	–
CC1(C(F)(F)C(F)(F)F)CCc2nc(-c3cc(F)c(O)c(F)c3)ccc2C1=O (stereo not drawn) [Compound 88]	78 nM	–	–	–
CC1CCc2nc(-c3cc(F)c(O)c(F)c3)ccc2C1=O (stereo not drawn) [Compound 7, 2-(3,5-difluoro-4-hydroxyphenyl)-6-methyl-7,8-dihydroquinolin-5(6H)-one]	64 nM	37 µM	7.2 nM	–
Cc1cc(-c2cc(F)c(O)c(F)c2)nc2c1C(=O)CCC2 [Compound 31]	991 nM	–	–	–
O=C1CCOc2nc(-c3cc(F)c(O)c(F)c3)ccc21 [Compound 64]	433 nM	–	–	–
CC1(CO)CCc2nc(-c3cc(F)c(O)c(F)c3)ccc2C1=O (stereo not drawn) [Compound 52]	222 nM	–	–	–
O=C1c2ccc(-c3cc(F)c(O)c(F)c3)nc2CCC12CCC2 [Compound 30]	303 nM	–	–	–
COC1(c2ccccn2)CCCc2nc(-c3cc(F)c(O)c(F)c3)ccc21 (stereo not drawn) [Compound 93]	131 nM	–	–	–
CC1(C)CCc2nc(-c3ccc(O)c(Cl)c3)ccc2C1=O [Compound 49]	26 nM	–	–	–
CCC1(O)CCCc2nc(-c3cc(F)c(O)c(F)c3)ccc21 (stereo not drawn) [Compound 43]	365 nM	–	–	–
CCC1(CC)CCc2nc(-c3cc(F)c(O)c(F)c3)ccc2C1=O [Compound 59]	71 nM	–	3.8 nM	–
